In ChEMBL document CHEMBL5653631, “A Potent and Selective ULK1 Inhibitor Suppresses Autophagy and Sensitizes Cancer Cells to Nutrient Stress” (iScience, 2018):
One block for each molecule: values may come before it.

Tests used:
[1] = molecular target: T1, NUAK family SNF1-like kinase 1 (Homo sapiens) (UniProt O60285); assay: Inhibition of human recombinant NuaK1 at 500 nM in presence of ATP by radiometric assay relative to control
T1 sequence (whole entry): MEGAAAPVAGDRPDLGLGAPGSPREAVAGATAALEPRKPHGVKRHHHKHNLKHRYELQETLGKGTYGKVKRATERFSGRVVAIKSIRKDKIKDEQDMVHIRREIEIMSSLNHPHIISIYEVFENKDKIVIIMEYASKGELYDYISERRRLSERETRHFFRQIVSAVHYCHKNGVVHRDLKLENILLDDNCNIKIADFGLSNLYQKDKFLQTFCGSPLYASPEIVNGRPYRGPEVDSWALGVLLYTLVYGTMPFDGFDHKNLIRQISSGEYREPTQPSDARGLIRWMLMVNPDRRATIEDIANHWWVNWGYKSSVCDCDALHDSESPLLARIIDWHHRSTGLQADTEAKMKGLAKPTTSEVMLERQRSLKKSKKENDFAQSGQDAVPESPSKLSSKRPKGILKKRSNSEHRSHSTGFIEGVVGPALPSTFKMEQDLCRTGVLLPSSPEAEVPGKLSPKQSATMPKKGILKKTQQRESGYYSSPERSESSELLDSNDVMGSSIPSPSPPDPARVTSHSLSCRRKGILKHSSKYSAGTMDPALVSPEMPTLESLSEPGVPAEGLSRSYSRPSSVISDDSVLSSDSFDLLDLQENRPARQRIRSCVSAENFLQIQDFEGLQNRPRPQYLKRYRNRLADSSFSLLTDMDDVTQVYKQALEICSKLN

[2] = molecular target: T2, Ephrin type-A receptor 8 (Homo sapiens) (UniProt P29322); assay: Inhibition of human recombinant EphA8 at 500 nM related to control ULK1
T2 sequence (whole entry): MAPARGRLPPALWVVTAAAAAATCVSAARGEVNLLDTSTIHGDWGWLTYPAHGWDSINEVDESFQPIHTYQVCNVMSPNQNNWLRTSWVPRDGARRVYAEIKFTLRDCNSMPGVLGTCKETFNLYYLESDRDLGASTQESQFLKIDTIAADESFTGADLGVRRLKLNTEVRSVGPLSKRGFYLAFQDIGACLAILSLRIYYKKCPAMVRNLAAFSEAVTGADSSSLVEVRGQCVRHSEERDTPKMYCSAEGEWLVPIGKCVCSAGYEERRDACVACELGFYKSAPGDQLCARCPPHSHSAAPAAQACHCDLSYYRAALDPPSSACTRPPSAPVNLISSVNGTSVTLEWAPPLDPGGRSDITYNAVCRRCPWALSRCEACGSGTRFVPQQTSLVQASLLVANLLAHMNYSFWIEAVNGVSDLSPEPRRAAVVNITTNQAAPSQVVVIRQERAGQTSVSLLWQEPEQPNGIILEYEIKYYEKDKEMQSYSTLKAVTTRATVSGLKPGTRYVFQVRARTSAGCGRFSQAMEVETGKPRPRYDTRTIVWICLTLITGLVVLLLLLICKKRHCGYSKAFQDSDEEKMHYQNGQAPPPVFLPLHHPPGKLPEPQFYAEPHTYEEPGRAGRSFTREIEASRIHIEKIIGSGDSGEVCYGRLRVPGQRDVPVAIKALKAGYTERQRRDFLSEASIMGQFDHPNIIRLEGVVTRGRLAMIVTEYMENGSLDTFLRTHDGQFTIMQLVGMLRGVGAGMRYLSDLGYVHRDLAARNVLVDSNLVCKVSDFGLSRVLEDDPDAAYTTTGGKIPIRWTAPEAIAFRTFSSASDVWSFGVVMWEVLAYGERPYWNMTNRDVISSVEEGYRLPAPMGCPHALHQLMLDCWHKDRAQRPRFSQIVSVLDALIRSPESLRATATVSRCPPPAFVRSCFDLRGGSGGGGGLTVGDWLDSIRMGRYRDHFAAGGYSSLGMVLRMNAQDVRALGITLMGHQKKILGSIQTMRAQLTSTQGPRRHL

[3] = molecular target: Insulin receptor (Homo sapiens) (UniProt P06213); assay: Inhibition of human recombinant INSR at 500 nM related to control ULK1
Chain of Insulin receptor (Homo sapiens) (P06213 28-758 limits assumed): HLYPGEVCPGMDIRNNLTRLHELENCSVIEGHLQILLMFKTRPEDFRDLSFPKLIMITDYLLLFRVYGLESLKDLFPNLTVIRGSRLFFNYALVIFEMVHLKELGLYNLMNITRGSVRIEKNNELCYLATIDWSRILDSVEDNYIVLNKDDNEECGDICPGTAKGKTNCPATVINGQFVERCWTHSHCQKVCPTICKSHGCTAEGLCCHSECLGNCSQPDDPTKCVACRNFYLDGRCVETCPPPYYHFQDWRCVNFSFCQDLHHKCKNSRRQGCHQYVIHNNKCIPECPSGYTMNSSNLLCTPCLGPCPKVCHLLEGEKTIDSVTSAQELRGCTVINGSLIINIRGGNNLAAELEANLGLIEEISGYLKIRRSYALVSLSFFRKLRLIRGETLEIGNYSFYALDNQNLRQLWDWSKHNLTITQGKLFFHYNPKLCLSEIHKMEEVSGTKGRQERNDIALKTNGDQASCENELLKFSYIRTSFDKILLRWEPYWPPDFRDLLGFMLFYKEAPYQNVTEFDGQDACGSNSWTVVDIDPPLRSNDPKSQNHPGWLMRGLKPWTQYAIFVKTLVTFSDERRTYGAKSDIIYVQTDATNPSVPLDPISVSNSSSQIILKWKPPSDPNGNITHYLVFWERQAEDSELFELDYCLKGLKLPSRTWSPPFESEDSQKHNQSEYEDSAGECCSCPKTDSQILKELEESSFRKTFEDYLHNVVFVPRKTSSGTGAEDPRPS
Chain of Insulin receptor (Homo sapiens) (P06213 763-1382 limits assumed): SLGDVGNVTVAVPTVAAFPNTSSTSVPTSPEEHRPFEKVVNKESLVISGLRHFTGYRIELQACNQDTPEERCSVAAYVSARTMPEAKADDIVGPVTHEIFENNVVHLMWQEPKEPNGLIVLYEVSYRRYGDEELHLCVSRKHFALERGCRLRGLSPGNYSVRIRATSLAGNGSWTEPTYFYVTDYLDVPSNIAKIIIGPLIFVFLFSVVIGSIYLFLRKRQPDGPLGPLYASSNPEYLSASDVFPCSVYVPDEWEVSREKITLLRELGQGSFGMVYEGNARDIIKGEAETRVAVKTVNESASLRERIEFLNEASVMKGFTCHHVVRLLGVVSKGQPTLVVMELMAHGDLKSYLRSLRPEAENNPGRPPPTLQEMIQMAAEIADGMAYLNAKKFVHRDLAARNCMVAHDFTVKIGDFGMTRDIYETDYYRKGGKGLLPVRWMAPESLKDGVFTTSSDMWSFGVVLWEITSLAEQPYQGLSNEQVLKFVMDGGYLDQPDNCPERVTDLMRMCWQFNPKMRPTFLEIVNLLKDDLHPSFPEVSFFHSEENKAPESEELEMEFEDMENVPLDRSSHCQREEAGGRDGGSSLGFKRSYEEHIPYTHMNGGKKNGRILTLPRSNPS

[4] = molecular target: T3, Tyrosine-protein kinase TXK (Homo sapiens) (UniProt P42681); assay: Inhibition of human recombinant TXK at 500 nM related to control ULK1
T3 sequence (whole entry): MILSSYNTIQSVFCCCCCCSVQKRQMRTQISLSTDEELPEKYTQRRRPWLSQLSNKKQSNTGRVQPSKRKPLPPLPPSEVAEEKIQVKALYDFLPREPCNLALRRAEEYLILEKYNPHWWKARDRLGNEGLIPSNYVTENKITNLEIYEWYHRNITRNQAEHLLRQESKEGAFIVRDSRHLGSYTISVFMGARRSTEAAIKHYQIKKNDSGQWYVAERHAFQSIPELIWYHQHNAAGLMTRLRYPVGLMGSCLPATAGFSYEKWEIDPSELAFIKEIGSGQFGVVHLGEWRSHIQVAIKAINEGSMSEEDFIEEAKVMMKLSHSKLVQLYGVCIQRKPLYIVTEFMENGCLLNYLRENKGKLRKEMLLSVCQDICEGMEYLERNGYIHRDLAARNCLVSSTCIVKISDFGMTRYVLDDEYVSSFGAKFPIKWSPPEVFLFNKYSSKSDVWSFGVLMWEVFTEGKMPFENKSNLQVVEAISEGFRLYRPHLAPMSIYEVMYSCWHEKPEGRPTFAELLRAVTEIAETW

[5] = molecular target: Cyclin-dependent kinase 13 (Homo sapiens) (UniProt Q14004); assay: Inhibition of human recombinant CHED at 15 nM in presence of ATP by radiometric assay relative to control
Chain of Cyclin-dependent kinase 13 (Homo sapiens) (Q14004 whole entry, looked up): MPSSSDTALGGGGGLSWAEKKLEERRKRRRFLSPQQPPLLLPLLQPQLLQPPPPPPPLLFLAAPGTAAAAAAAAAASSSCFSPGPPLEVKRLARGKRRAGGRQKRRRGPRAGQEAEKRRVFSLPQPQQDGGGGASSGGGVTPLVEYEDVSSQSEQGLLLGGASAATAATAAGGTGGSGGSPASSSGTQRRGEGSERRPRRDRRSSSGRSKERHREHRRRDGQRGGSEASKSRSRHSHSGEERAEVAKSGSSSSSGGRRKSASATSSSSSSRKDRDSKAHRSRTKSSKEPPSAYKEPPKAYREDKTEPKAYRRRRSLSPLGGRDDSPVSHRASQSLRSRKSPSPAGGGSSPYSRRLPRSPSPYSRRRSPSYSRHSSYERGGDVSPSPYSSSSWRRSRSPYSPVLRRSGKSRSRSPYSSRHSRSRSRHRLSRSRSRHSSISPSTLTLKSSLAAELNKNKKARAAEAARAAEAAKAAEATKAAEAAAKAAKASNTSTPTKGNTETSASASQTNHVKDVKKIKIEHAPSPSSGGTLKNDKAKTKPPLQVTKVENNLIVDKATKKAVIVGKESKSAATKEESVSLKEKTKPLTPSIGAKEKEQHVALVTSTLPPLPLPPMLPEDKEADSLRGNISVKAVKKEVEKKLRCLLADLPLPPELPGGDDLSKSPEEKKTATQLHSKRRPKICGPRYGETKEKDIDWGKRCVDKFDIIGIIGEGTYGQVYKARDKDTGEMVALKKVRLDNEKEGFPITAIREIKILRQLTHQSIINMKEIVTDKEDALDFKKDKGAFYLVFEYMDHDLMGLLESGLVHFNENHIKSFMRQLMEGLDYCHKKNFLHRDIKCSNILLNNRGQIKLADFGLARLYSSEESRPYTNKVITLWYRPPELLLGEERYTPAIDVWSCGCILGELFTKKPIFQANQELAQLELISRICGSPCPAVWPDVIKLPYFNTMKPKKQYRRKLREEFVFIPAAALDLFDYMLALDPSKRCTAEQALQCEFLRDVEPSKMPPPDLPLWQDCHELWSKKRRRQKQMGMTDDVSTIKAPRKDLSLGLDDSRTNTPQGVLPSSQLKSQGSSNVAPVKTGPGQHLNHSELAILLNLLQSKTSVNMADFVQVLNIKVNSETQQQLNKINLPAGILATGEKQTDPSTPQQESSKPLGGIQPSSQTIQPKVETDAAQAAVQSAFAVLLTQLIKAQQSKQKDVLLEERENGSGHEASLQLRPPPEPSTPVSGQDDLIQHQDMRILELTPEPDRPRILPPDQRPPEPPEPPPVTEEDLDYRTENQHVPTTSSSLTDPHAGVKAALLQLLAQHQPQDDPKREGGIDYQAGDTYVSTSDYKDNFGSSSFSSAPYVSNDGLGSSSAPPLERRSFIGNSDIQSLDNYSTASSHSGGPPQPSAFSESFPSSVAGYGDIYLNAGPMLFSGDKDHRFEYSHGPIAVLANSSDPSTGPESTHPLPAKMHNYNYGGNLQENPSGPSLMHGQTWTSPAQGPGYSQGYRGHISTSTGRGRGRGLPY

[6] = molecular target: G protein-coupled receptor kinase 5 (Homo sapiens) (UniProt P34947); assay: Inhibition of human recombinant GPRK5 at 15 nM in presence of ATP by radiometric assay relative to control
Chain of G protein-coupled receptor kinase 5 (Homo sapiens) (P34947 whole entry, looked up): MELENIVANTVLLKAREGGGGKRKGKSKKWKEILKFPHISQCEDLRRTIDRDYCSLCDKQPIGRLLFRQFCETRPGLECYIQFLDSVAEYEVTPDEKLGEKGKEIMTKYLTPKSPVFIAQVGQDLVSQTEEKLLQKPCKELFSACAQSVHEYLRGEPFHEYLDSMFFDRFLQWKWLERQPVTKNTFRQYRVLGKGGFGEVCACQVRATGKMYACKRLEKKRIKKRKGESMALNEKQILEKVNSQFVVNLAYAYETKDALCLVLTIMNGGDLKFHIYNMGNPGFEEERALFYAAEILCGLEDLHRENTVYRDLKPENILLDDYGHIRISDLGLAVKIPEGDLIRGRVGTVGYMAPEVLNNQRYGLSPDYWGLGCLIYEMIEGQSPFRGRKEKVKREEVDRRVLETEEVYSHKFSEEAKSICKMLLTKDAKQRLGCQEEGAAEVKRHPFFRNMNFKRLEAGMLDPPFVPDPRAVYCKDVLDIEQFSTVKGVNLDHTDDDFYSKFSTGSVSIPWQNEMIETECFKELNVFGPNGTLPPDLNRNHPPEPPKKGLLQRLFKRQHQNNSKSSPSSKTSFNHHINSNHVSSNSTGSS

[7] = molecular target: Ribosomal protein S6 kinase alpha-5 (Homo sapiens) (UniProt O75582); assay: Inhibition of human recombinant MSK1 at 15 nM in presence of ATP by radiometric assay relative to control
[8] = molecular target: TGF-beta receptor type-2 (Homo sapiens) (UniProt P37173); assay: Inhibition of human recombinant TGFbR2 at 15 nM in presence of ATP by radiometric assay relative to control
Chain of TGF-beta receptor type-2 (Homo sapiens) (P37173 whole entry): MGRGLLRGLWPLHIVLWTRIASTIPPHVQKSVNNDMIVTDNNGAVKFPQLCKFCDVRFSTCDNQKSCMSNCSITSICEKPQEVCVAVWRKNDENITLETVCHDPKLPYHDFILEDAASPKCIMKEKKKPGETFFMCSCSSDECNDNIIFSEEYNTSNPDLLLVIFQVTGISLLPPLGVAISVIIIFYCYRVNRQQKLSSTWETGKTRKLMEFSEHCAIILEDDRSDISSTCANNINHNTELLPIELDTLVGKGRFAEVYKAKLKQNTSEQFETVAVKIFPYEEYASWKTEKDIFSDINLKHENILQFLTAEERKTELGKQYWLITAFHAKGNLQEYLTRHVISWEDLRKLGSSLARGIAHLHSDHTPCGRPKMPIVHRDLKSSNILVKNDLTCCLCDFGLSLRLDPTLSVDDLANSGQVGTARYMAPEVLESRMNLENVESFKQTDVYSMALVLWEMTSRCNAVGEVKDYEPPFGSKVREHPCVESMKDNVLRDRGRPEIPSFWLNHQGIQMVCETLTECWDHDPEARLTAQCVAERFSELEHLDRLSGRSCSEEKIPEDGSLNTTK

[9] = molecular target: Serine/threonine-protein kinase PRP4 homolog (Homo sapiens) (UniProt Q13523); assay: Inhibition of human recombinant PRP4 at 15 nM related to control ULK1
[10] = molecular target: T3, Tyrosine-protein kinase TXK (Homo sapiens); assay: Inhibition of human recombinant TXK at 15 nM related to control ULK1
[11] = molecular target: Calcium/calmodulin-dependent protein kinase type II subunit beta (Homo sapiens) (UniProt Q13554); assay: Inhibition of human recombinant CaMK2b at 40 nM related to control ULK1
Chain of Calcium/calmodulin-dependent protein kinase type II subunit beta (Homo sapiens) (Q13554 whole entry): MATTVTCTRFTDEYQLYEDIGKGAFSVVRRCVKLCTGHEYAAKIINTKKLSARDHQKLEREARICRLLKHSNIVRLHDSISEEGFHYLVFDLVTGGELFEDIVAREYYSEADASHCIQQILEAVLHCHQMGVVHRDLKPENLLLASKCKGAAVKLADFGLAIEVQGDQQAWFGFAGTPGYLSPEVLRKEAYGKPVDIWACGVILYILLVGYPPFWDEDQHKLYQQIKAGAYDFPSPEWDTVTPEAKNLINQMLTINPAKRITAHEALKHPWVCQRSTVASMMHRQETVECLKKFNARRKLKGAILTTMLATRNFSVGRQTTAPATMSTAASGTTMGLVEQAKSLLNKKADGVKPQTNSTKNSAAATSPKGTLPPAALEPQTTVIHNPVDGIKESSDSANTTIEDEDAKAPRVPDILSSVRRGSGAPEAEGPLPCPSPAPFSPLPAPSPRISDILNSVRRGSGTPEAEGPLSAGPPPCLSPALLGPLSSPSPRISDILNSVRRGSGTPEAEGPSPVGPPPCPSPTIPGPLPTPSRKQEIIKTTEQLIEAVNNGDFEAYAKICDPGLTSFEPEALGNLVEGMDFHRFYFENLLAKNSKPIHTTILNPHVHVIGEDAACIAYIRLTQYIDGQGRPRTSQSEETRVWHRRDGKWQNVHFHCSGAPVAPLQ

[12] = molecular target: Tau-tubulin kinase 1 (Homo sapiens) (UniProt Q5TCY1); assay: Inhibition of human recombinant TTBK1 at 40 nM related to control ULK1

inhibition [1]: 71%
fold change (FC) [2]: 0.03
fold change (FC) [3]: 0
fold change (FC) [4]: 0.23
Compound: CNC(=O)c1ccccc1Oc1nc(Nc2cc(OC)c(OC)c(OC)c2)ncc1Br

inhibition [5]: 0%
inhibition [6]: 0%
inhibition [7]: 2%
inhibition [8]: 42%
fold change (FC) [9]: 0.07
fold change (FC) [10]: 0.67
Compound: CC(C)[C@H](NC(=O)c1cc(-c2cnn3cc(-c4ccc(OCCN5CCCCC5)cc4)cnc23)cs1)C(F)(F)F

fold change (FC) [11]: 0
fold change (FC) [12]: 0
Compound: O=C(N[C@@H](C1CC1)C(F)(F)F)c1cc(-c2cnn3cc(-c4ccc(F)cc4)cnc23)cs1
